Measured values from the supplement of paper PMC10307832.

Tests used:
Assay in all cases: relative viability (nuclei count vs DMSO), 5 days (fraction); higher = more cells survive
NCI-H2126 = test system: NCI-H2126
How it was run: (§1)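 Lung cancer cell lines were pin-tool dosed in 1536-well plates on the day after seeding, with either a lone drug or a fixed anchor-drug dose plus five library-drug doses (not always all listed) in √10 steps. Nuclei were counted on 4× images after 5 days. Relative viability is the ratio of treated-well to vehicle-well nuclei counts, with each value a median of duplicate plates.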

NCI-H1755 = test system: NCI-H1755
How it was run: as §1

CAL-12T = test system: CAL-12T
How it was run: as §1

NCI-H1975 = test system: NCI-H1975
How it was run: as §1

NCI-H1993 = test system: NCI-H1993
How it was run: as §1

NCI-H1666 = test system: NCI-H1666
How it was run: as §1

NCI-H3122 = test system: NCI-H3122
How it was run: as §1

ABC-1 = test system: ABC-1
How it was run: as §1

HCC-78 = test system: HCC-78
How it was run: as §1

HOP-62 = test system: HOP-62
How it was run: as §1

NCI-H2085 = test system: NCI-H2085
How it was run: as §1

NCI-H322M = test system: NCI-H322M
How it was run: as §1

LXF-289 = test system: LXF-289
How it was run: as §1

ChaGo-K-1 = test system: ChaGo-K-1
How it was run: as §1

HCC-15 = test system: HCC-15
How it was run: as §1

NCI-H1915 = test system: NCI-H1915
How it was run: as §1

NCI-H358 = test system: NCI-H358
How it was run: as §1

NCI-H441 = test system: NCI-H441
How it was run: as §1

EMC-BAC-2 = test system: EMC-BAC-2
How it was run: as §1

EPLC-272H = test system: EPLC-272H
How it was run: as §1

NCI-H522 = test system: NCI-H522
How it was run: as §1

Clc1ccc(Nc2nnc(Cc3ccncc3)c3ccccc23)cc1 [Vatalanib] + NC(=O)Nc1cc(-c2cccc(F)c2)sc1C(=O)N[C@H]1CCCNC1 [AZD7762] (partner 0.2 µM)
relative viability (NCI-H2126; first compound 0.04 µM): 0.994
relative viability (NCI-H2126; first compound 0.1265 µM): 0.99
relative viability (NCI-H2126; first compound 0.4 µM): 1.02
relative viability (NCI-H2126; first compound 1.265 µM): 0.995
relative viability (NCI-H2126; first compound 4 µM): 1.07
relative viability (NCI-H1755; first compound 0.04 µM): 0.451
relative viability (NCI-H1755; first compound 0.1265 µM): 0.406
relative viability (NCI-H1755; first compound 0.4 µM): 0.489
relative viability (NCI-H1755; first compound 1.265 µM): 0.418
relative viability (NCI-H1755; first compound 4 µM): 0.419
relative viability (CAL-12T; first compound 0.04 µM): 0.683
relative viability (CAL-12T; first compound 0.1265 µM): 0.599
relative viability (CAL-12T; first compound 0.4 µM): 0.588
relative viability (CAL-12T; first compound 1.265 µM): 0.469
relative viability (CAL-12T; first compound 4 µM): 0.574
relative viability (NCI-H1975; first compound 0.04 µM): 0.731
relative viability (NCI-H1975; first compound 0.1265 µM): 0.66
relative viability (NCI-H1975; first compound 0.4 µM): 0.59
relative viability (NCI-H1975; first compound 1.265 µM): 0.492
relative viability (NCI-H1975; first compound 4 µM): 0.568
relative viability (NCI-H1993; first compound 0.04 µM): 0.4
relative viability (NCI-H1993; first compound 0.1265 µM): 0.934
relative viability (NCI-H1993; first compound 0.4 µM): 0.728
relative viability (NCI-H1993; first compound 1.265 µM): 0.713
relative viability (NCI-H1993; first compound 4 µM): 0.737
relative viability (NCI-H1666; first compound 0.04 µM): 0.733
relative viability (NCI-H1666; first compound 0.1265 µM): 0.874
relative viability (NCI-H1666; first compound 0.4 µM): 0.855
relative viability (NCI-H1666; first compound 1.265 µM): 0.694
relative viability (NCI-H1666; first compound 4 µM): 0.762
relative viability (NCI-H3122; first compound 0.04 µM): 1.07
relative viability (NCI-H3122; first compound 0.1265 µM): 0.969
relative viability (NCI-H3122; first compound 0.4 µM): 1.02
relative viability (NCI-H3122; first compound 1.265 µM): 0.966
relative viability (NCI-H3122; first compound 4 µM): 0.995
relative viability (ABC-1; first compound 0.04 µM): 0.7
relative viability (ABC-1; first compound 0.4 µM): 0.744
relative viability (ABC-1; first compound 1.265 µM): 0.853
relative viability (ABC-1; first compound 4 µM): 0.719
relative viability (HCC-78; first compound 0.04 µM): 0.566
relative viability (HCC-78; first compound 0.1265 µM): 0.633
relative viability (HCC-78; first compound 0.4 µM): 0.59
relative viability (HCC-78; first compound 1.265 µM): 0.562
relative viability (HCC-78; first compound 4 µM): 0.547
relative viability (HOP-62; first compound 0.04 µM): 0.792
relative viability (HOP-62; first compound 0.1265 µM): 0.618
relative viability (HOP-62; first compound 0.4 µM): 0.603
relative viability (HOP-62; first compound 1.265 µM): 0.695
relative viability (HOP-62; first compound 4 µM): 0.681
relative viability (NCI-H2085; first compound 0.04 µM): 1.12
relative viability (NCI-H2085; first compound 0.1265 µM): 1
relative viability (NCI-H2085; first compound 0.4 µM): 0.998
relative viability (NCI-H2085; first compound 1.265 µM): 0.862
relative viability (NCI-H2085; first compound 4 µM): 0.928
relative viability (NCI-H322M; first compound 0.04 µM): 0.543
relative viability (NCI-H322M; first compound 0.1265 µM): 0.527
relative viability (NCI-H322M; first compound 0.4 µM): 0.503
relative viability (NCI-H322M; first compound 4 µM): 0.47
relative viability (LXF-289; first compound 0.04 µM): 1.14
relative viability (LXF-289; first compound 0.1265 µM): 0.97
relative viability (LXF-289; first compound 0.4 µM): 1.21
relative viability (LXF-289; first compound 1.265 µM): 1.01
relative viability (LXF-289; first compound 4 µM): 1.03
relative viability (ChaGo-K-1; first compound 0.04 µM): 0.941
relative viability (ChaGo-K-1; first compound 0.1265 µM): 0.845
relative viability (ChaGo-K-1; first compound 0.4 µM): 0.88
relative viability (ChaGo-K-1; first compound 1.265 µM): 0.865
relative viability (ChaGo-K-1; first compound 4 µM): 0.876
relative viability (HCC-15; first compound 0.04 µM): 1.18
relative viability (HCC-15; first compound 0.1265 µM): 1.23
relative viability (HCC-15; first compound 0.4 µM): 1.13
relative viability (HCC-15; first compound 1.265 µM): 1.32
relative viability (HCC-15; first compound 4 µM): 1.54
relative viability (NCI-H1915; first compound 0.04 µM): 0.717
relative viability (NCI-H1915; first compound 0.1265 µM): 0.665
relative viability (NCI-H1915; first compound 0.4 µM): 0.716
relative viability (NCI-H1915; first compound 1.265 µM): 0.653
relative viability (NCI-H1915; first compound 4 µM): 0.661
relative viability (NCI-H358; first compound 0.04 µM): 0.694
relative viability (NCI-H358; first compound 0.1265 µM): 0.441
relative viability (NCI-H358; first compound 0.4 µM): 0.57
relative viability (NCI-H358; first compound 1.265 µM): 0.446
relative viability (NCI-H358; first compound 4 µM): 0.481
relative viability (NCI-H441; first compound 0.04 µM): 1.05
relative viability (NCI-H441; first compound 0.1265 µM): 1.18
relative viability (NCI-H441; first compound 0.4 µM): 1.19
relative viability (NCI-H441; first compound 1.265 µM): 1.02
relative viability (NCI-H441; first compound 4 µM): 0.892
relative viability (EMC-BAC-2; first compound 0.04 µM): 1.05
relative viability (EMC-BAC-2; first compound 0.1265 µM): 0.991
relative viability (EMC-BAC-2; first compound 0.4 µM): 1.12
relative viability (EMC-BAC-2; first compound 4 µM): 1.15
relative viability (EPLC-272H; first compound 0.04 µM): 0.0728
relative viability (EPLC-272H; first compound 0.1265 µM): 0.167
relative viability (EPLC-272H; first compound 0.4 µM): 0.212
relative viability (EPLC-272H; first compound 1.265 µM): 0.216
relative viability (EPLC-272H; first compound 4 µM): 0.207
relative viability (NCI-H522; first compound 0.04 µM): 0.848
relative viability (NCI-H522; first compound 0.1265 µM): 0.794
relative viability (NCI-H522; first compound 0.4 µM): 0.777
relative viability (NCI-H522; first compound 1.265 µM): 0.74
relative viability (NCI-H522; first compound 4 µM): 0.808
